Measured values reported in PubChem BioAssay (NCI).
Where “and” joins values, the source holds several entries; their conditions need not be identical. Identical values can stand only once.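 A five-concentration, 48-hour dose response in 96-well plates underlies each endpoint, interpolated linearly between surrounding concentrations. GI50: concentration for 50% inhibition of growth. TGI denotes the concentration required for complete inhibition of growth.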

Experiments:
Assay in all cases: NCI-60 cell line screen, 48 h
[1] = tested on: A549 NSCLC
[2] = tested on: HCT-15 colon
[3] = tested on: HOP-62 NSCLC
[4] = tested on: HS 578T breast
[5] = tested on: MOLT-4 leukemia
[6] = tested on: NCI/ADR-RES ovarian
[7] = tested on: RXF 393 renal
[8] = tested on: SK-MEL-5 melanoma
[9] = tested on: SR leukemia
[10] = tested on: SW-620 colon

SMILES: O=C(O)C1CCCN1Cc1c[nH]c2ccccc12 (stereo unspecified)
- TGI [1]: > 100 µM
- TGI [2]: > 100 µM
- TGI [3]: > 100 µM
- TGI [4]: > 100 µM
- TGI [5]: > 100 µM
- TGI [6]: > 100 µM
- TGI [7]: > 100 µM
- TGI [8]: > 100 µM
- TGI [9]: > 100 µM
- TGI [10]: > 100 µM

SMILES: COc1ccc(/C=C\c2cc(OC)c(OC)c(OC)c2)cc1NC(=O)[C@@H](N)CO
- GI50 [1]: 0.0295 µM
- TGI [1]: > 100 µM
- GI50 [2]: 16.5 nM
- TGI [2]: > 100 µM
- GI50 [3]: 0.0267 µM
- TGI [3]: > 100 µM
- GI50 [4]: 30.9 nM
- TGI [4]: > 100 µM
- GI50 [5]: 43.2 nM
- TGI [5]: > 100 µM
- GI50 [6]: 0.0205 µM
- TGI [6]: 0.245 µM
- GI50 [7]: < 10 nM
- TGI [7]: 26.7 µM
- GI50 [8]: < 0.0112 µM
- TGI [8]: 0.0364 µM
- GI50 [9]: < 15 nM
- TGI [9]: > 100 µM
- GI50 [10]: 27 nM
- TGI [10]: > 100 µM

SMILES: O=c1oc2ccccc2cc1-c1ccc([N+](=O)[O-])cc1
- TGI [1]: > 100 µM
- TGI [2]: > 100 µM
- TGI [3]: > 100 µM
- TGI [4]: > 100 µM
- TGI [5]: > 100 µM
- TGI [6]: > 100 µM
- TGI [7]: > 100 µM
- TGI [8]: > 100 µM
- TGI [9]: > 100 µM
- TGI [10]: > 100 µM

SMILES: Cc1c(C(=O)N/N=C/c2ccc(O)cc2)nnn1-c1ccnc2c(C(F)(F)F)cccc12
- GI50 [1]: > 100 µM
- TGI [1]: > 100 µM
- GI50 [2]: > 100000 nM
- TGI [2]: > 100 µM
- GI50 [3]: 17.5 µM
- TGI [3]: 37 µM
- GI50 [4]: 44600 nM
- TGI [4]: > 100 µM
- GI50 [5]: > 100000 nM
- TGI [5]: > 100 µM
- GI50 [6]: > 100 µM
- TGI [6]: > 100 µM
- GI50 [7]: 5220 nM
- TGI [7]: 34.6 µM
- GI50 [8]: > 100 µM
- TGI [8]: > 100 µM
- GI50 [9]: 44100 nM
- TGI [9]: > 100 µM
- GI50 [10]: > 100000 nM
- TGI [10]: > 100 µM

SMILES: Cc1c(C(=O)CCl)c(=O)n(-c2ccccc2)n1C
- GI50 [1]: 11.6 µM
- TGI [1]: 27.4 µM
- GI50 [2]: 3590 nM
- TGI [2]: 15.5 µM
- GI50 [3]: 11.5 µM
- TGI [3]: 27.3 µM
- GI50 [4]: 922 nM
- TGI [4]: 5.52 µM
- GI50 [5]: 2480 nM
- TGI [5]: 11.5 µM
- GI50 [6]: 5.53 µM
- TGI [6]: 27.3 µM
- GI50 [7]: 1760 nM
- TGI [7]: 6.11 µM
- GI50 [8]: 3.66 µM
- TGI [8]: 14.5 µM
- GI50 [9]: 2280 nM
- TGI [9]: 13.5 µM
- GI50 [10]: 2700 nM
- TGI [10]: 8.54 µM

SMILES: Cc1c2ncccc2c(C)c2c1[nH]c1ccc(O)cc12
- GI50 [1]: 4.89 µM and 1.93 µM
- TGI [1]: 15.4 µM and 13 µM
- GI50 [2]: 6160 nM and 6530 nM
- TGI [2]: 17.6 µM and 40 µM
- GI50 [3]: 4.01 µM and 5.07 µM
- TGI [3]: 10.8 µM and 59.5 µM
- GI50 [4]: 7840 nM
- TGI [4]: 21.2 µM and 84.8 µM
- TGI [5]: 3.56 µM and 2.13 µM
- GI50 [6]: 4.08 µM
- TGI [6]: 21 µM
- GI50 [7]: 10700 nM
- TGI [7]: 9.81 µM and 43 µM
- GI50 [8]: 3.95 µM
- TGI [8]: 20.4 µM and 15 µM
- GI50 [9]: 2910 nM and 2480 nM
- TGI [9]: 7.31 µM and 18.9 µM
- GI50 [10]: 7830 nM
- TGI [10]: 39.9 µM

SMILES: Clc1ccc(N2COOC3(OOC2)C2CC4CC(C2)CC3C4)cc1
- GI50 [1]: 5.18 µM
- TGI [1]: > 100 µM
- GI50 [2]: 864 nM
- TGI [2]: > 41.9 µM
- GI50 [3]: 13.9 µM
- TGI [3]: 38.6 µM
- GI50 [4]: 8990 nM
- TGI [4]: > 100 µM
- GI50 [5]: 3820 nM
- TGI [5]: > 50.7 µM
- GI50 [6]: 5.34 µM
- TGI [6]: 74.9 µM
- GI50 [7]: 6960 nM
- TGI [7]: > 59.3 µM
- GI50 [8]: 1.25 µM
- TGI [8]: > 24.2 µM
- GI50 [9]: 2190 nM
- TGI [9]: 11.4 µM
- TGI [10]: > 57.8 µM

SMILES: Cc1ccc2c(/C=C/C(=O)c3cc(CN4CCOCC4)c(O)c4nc(C)ccc34)cc(CN3CCOCC3)c(O)c2n1
- GI50 [1]: 0.38 µM
- TGI [1]: 15.1 µM
- GI50 [2]: 223 nM
- TGI [2]: 3.33 µM
- GI50 [3]: 0.739 µM
- TGI [3]: 11.8 µM
- GI50 [4]: 1280 nM
- TGI [4]: > 100 µM
- GI50 [5]: 386 nM
- TGI [5]: 2.66 µM
- GI50 [6]: 0.162 µM
- TGI [6]: > 100 µM
- GI50 [7]: 851 nM
- TGI [7]: 2.27 µM
- GI50 [8]: 0.581 µM
- TGI [8]: 2.32 µM
- GI50 [9]: 318 nM
- TGI [9]: 11.9 µM
- GI50 [10]: 485 nM
- TGI [10]: 2.4 µM

SMILES: CCOC(=O)Oc1c(OC)cc(C(=O)c2ccc(OC)c(OC(=O)CCl)c2OC)cc1OC
- GI50 [1]: 3.39 µM
- TGI [1]: > 100 µM
- GI50 [2]: 415 nM
- TGI [2]: > 100 µM
- GI50 [3]: 0.836 µM
- TGI [3]: > 100 µM
- GI50 [4]: 556 nM
- TGI [4]: > 100 µM
- GI50 [5]: 994 nM
- TGI [5]: > 100 µM
- GI50 [6]: 0.497 µM
- TGI [6]: 3.98 µM
- GI50 [7]: 1540 nM
- TGI [7]: 8.08 µM
- GI50 [8]: 0.475 µM
- TGI [8]: 14.9 µM
- GI50 [9]: 459 nM
- TGI [9]: > 100 µM
- GI50 [10]: 455 nM
- TGI [10]: > 100 µM

SMILES: O=C(Oc1cccc(Nc2ncnc3ccccc23)c1)c1ccccc1Cl
- GI50 [1]: 25.9 µM
- TGI [1]: > 100 µM
- GI50 [2]: 18900 nM
- TGI [2]: 46.6 µM
- GI50 [3]: 25.6 µM
- TGI [3]: 83.9 µM
- GI50 [4]: 19100 nM
- TGI [4]: 48.1 µM
- GI50 [5]: > 100000 nM
- TGI [5]: > 100 µM
- GI50 [6]: 14.5 µM
- TGI [6]: 40.7 µM
- GI50 [7]: 24800 nM
- TGI [7]: 70.6 µM
- GI50 [8]: 14.6 µM
- TGI [8]: 28.2 µM
- GI50 [9]: 65700 nM
- TGI [9]: > 100 µM
- GI50 [10]: 21800 nM
- TGI [10]: 49.2 µM

SMILES: CC1/C=C/C=C/CC/C=C/C=C/C=C/C=C/C(OC2OC(C)C(O)C(N)C2O)CC2OC(CC(O)C(O)CCC(O)CC(O)CC(O)CC(=O)OC(C)C(C)C1O)CC(O)C2C(=O)O (stereo unspecified)
- GI50 [1]: 24.5 µg/mL
- TGI [1]: 33 µM and 46.3 µg/mL
- GI50 [2]: 43.8 µg/mL
- TGI [2]: 82.2 µM and 150 µg/mL
- GI50 [3]: 25.4 µg/mL
- TGI [3]: 35.8 µM and 55.3 µg/mL
- GI50 [4]: 32.5 µg/mL
- TGI [4]: 55.1 µM and 66.9 µg/mL
- TGI [5]: 38.2 µM
- GI50 [6]: 41 µg/mL
- TGI [6]: 45.2 µM and 93.8 µg/mL
- GI50 [7]: 19.5 µg/mL
- TGI [7]: 27.3 µM and 40.5 µg/mL
- GI50 [8]: 47.3 µg/mL
- TGI [8]: 58.9 µM and 150 µg/mL
- TGI [9]: 35.5 µM
- GI50 [10]: 25.4 µg/mL
- TGI [10]: 42.2 µM and 46 µg/mL

SMILES: O=c1oc2ccccc2c(Cl)c1Cl
- GI50 [1]: 15.5 µM
- TGI [1]: 32.2 µM
- GI50 [2]: 2240 nM
- TGI [2]: 6.28 µM
- GI50 [3]: 3.49 µM
- TGI [3]: 14.2 µM
- GI50 [4]: 2690 nM
- TGI [4]: 9.71 µM
- GI50 [5]: 3370 nM
- TGI [5]: > 100 µM
- GI50 [6]: 5.85 µM
- TGI [6]: 21.4 µM
- GI50 [7]: 1950 nM
- TGI [7]: 4.31 µM
- GI50 [8]: 4.94 µM
- TGI [8]: 16.9 µM
- GI50 [9]: 2290 nM
- TGI [9]: 65.8 µM
- GI50 [10]: 1510 nM
- TGI [10]: 5.6 µM
